We go through two compounds from ChEMBL document CHEMBL5726706, “C-linked heterocycloaklyl substituted pyrimidines and their uses” (2018).

pKi: −log10 of the molar value.

Broadly, the pKi is −log10 of the Ki, conventionally taken in molar units.

This test concerns the target T1, Mitogen-activated protein kinase kinase kinase 12 (Homo sapiens, UniProt Q12852).
T1 sequence (Q12852 whole entry): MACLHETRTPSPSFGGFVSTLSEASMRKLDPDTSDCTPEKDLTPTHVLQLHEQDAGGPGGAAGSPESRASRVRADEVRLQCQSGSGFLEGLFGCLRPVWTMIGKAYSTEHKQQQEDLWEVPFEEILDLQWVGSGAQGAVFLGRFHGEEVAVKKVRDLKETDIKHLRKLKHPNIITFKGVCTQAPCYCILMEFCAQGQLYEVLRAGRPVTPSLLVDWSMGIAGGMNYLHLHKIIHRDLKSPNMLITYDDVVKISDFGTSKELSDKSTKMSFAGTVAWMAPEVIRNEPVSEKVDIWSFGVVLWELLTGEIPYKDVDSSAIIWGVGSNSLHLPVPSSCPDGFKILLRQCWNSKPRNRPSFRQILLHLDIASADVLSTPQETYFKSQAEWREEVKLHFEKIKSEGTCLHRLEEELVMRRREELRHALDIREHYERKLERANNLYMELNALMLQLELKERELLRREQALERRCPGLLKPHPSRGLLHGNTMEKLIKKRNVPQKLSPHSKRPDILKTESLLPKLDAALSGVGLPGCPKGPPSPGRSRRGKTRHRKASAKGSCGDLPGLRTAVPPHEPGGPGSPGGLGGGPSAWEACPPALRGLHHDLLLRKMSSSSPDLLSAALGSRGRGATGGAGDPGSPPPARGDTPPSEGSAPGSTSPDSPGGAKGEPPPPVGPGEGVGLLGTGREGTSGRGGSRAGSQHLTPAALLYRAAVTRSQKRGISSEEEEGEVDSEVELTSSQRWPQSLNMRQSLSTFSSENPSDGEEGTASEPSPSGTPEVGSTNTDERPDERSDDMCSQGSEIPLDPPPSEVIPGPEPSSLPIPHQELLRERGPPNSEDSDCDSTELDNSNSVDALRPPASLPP
Briefly: TR-FRET assay: DLK kinase reactions (20 μL) containing 5 nM N-terminally GST-tagged DLK (catalytic domain amino acid 1-520) (Carna Bioscience), 40 nM N-terminally HIS-tagged MKK4 K131M substrate, and 30 μM ATP in kinase reaction buffer (50 mM HEPES, pH 7.5, 0.01% Triton X-100, 0.01% Bovine γ-Globulins, 2 mM DTT, 10 mM MgCl2 and 1 mM EGTA), and testing compound 1:3 serial diluted starting at 20 uM were incubated at ambient temperature for 60 minutes in 384 well OptiPlate (Perkin Elmer). To quench kinase reactions and detect phosphorylated MKK4, 15 μL of TR-FRET antibody mixture containing 2 nM anti-phosphorylated MKK4 labeled with Europium cryptate (Cisbio) and 23 nM anti-HIS labeled with D2 (Cisbio) in detection buffer (25 mM Tris pH 7.5, 100 mM NaCl, 100 mM EDTA, 0.01% Tween-20, and 200 mM KF) was added to the reaction mixture. The detection mixture was incubated for 3 hours at ambient temperature and the TR-FRET was detected with an EnVision multilabel plate reader (Perkin-Elmer) using the LANCE/DELFIA Dual Enh label from Perkin-Elmer (excitation filter: UV2 (TRF) 320 and emission filters: APC 665 and Europium 615). (In general: In TR-FRET formats the signal depends on donor and acceptor labels being close together.)

For the compound `Cc1ccnc(Nc2cc(C3CCCN(C(=O)Cc4ccccc4)C3)nc(C)n2)c1` (configuration not stated), the pKi is 6.19. In the case of `COC[C@H]1CCCN1c1nc(Nc2cc(C(F)(F)F)ccn2)cc(C2CCN(C(C)=O)CC2)n1` it was 7.26.
